Experiments:
[1] = tested on: Platelet; test: Inhibition of PAF-induced platelet aggregation at 2.4 mmol/L; assay type: functional
[2] = tested on: Platelet; test: Inhibition of PAF-induced platelet aggregation at 1.0 mmol/L; assay type: functional

| Compound | inhibition at 2400 µM [1] [%] | inhibition at 1000 µM [2] [%] |
| --- | --- | --- |
| CC(=O)Oc1ccccc1C(=O)O [ASPIRIN] | 44.9 | – |
| CC(=O)O[C@@H](C[C@]12[C@@H]3CCC[C@@]34CCC3[C@H](O)N4[C@@H]1[C@@H](C(C)C)CC[C@@]32C)C(=O)[C@]1(C)CO[C@@]2(C)CC[C@H]1O2 [DAPHNIOLDHANINE H] | – | 10.9 |
| C[C@@H]1CN2[C@H]3[C@@H]4CCC[C@@H]4C(=O)C[C@@H]3[C@]3(C)OC(=O)CC[C@]34CC[C@H]1[C@H]24 [DAPHNIOLDHANINE J] | – | 71.6 |
| CCC1=CC[C@]2(CO1)[C@@H]1CCC3=C4[C@H](CC3)[C@H](C(=O)OC)C[C@]42CN(C)C1 [DEHYDRODAPHNIGRACILINE] | – | 13.4 |
